We go through 3 molecules from patent publication US20260108527A1, “POLO LIKE KINASE 4 INHIBITORS” (ORIC Pharmaceuticals, Inc., priority 2022, published 2026).

One test addresses T1, human recombinant PLK4 (Homo sapiens, UniProt O00444).
T1 construct: purchased ThermoFisher PV6396
T1 sequence (O00444 1-970): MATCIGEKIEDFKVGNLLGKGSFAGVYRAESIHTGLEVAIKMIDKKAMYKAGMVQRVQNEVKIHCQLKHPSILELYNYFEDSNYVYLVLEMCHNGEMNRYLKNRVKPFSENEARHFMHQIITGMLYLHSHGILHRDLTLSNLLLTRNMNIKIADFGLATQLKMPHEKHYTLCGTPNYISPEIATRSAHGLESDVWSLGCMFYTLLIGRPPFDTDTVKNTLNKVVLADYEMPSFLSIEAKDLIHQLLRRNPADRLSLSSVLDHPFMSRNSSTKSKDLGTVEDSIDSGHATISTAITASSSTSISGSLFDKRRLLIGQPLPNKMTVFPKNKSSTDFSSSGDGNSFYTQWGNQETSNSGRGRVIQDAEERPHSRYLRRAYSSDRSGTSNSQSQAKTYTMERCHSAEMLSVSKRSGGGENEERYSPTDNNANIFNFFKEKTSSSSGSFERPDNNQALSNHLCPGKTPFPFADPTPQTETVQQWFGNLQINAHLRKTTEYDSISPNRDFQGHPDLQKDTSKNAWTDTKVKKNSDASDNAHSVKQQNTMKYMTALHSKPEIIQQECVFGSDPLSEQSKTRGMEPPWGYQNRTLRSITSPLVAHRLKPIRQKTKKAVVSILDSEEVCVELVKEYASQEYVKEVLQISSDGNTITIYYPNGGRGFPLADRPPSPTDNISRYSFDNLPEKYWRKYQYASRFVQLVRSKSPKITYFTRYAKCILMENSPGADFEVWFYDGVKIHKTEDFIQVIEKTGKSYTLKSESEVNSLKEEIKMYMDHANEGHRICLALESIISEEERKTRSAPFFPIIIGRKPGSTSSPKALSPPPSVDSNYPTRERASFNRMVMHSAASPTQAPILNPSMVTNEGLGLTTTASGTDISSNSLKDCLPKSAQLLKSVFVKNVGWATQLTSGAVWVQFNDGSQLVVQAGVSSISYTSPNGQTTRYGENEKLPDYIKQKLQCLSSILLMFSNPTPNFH
The test is described as follows: PLK4 Biochemical Assay (ADP-Glo). The conditions noted are these: 0.5 nM PLK4, 8.0 μM ATP, 4.7 μM MBP, 6 hours at RT. As for the experimental part:
Activity of human recombinant PLK4 (ThermoFisher, cat #PV6396) was measured by quantification of adenosine diphosphate (ADP) using the ADP-Glo Kinase Assay Kit (Promega, cat #V9102). […] 5 μL of 1.0 nM PLK4 protein in assay buffer (50 mM HEPES, pH 7.5, 0.01% Brij-35, 0.01% BSA, 10 mM MgCl2, 1 mM EGTA, 1 mM DTT) was added to the plates. Test compounds and PLK4 were incubated for 15 minutes at room temperature (RT). […] Reactions were stopped and the remaining ATP depleted by adding 10 μL of ADP-Glo reagent (Promega, cat #V912B) and incubating for 40 minutes at RT. The simultaneous conversion of the remaining ADP to ATP and measurement of the newly synthesized ATP was achieved by addition of 20 μL Kinase Detection reagent (Promega, cat #V914B), incubation for 30 min at RT, and luminescence detection using the EnVision plate reader (PerkinElmer). […] The IC50 values reported in Table 2 were determined using four parameter non-linear regression curve fit.
Background: ADP-Glo turns the ADP formed in a reaction into a luminescent signal.

Test [1] concerns the target T2, human recombinant Aurora A (Homo sapiens, UniProt O14965).
T2 construct: purchased ThermoFisher PR5935A
T2 sequence (O14965 1-403): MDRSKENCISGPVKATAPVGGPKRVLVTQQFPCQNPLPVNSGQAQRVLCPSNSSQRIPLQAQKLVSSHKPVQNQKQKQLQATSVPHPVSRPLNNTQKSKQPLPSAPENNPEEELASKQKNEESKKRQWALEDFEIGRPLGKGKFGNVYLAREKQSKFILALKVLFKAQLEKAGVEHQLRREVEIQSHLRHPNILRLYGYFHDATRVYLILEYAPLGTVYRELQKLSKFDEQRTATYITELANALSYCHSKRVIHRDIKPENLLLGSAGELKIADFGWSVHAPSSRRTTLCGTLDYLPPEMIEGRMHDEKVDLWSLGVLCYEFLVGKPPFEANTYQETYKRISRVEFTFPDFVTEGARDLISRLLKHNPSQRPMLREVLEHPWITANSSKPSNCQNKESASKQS
The test is described as follows: Aurora A Kinase Biochemical Assay (ADP-Glo). The conditions noted are these: selectivity ratio; Aurora A 2.5 nM, 20 μM ATP. On the procedure: Activity of human recombinant Aurora A (ThermoFisher, cat #PR5935A) was measured by quantification of adenosine diphosphate (ADP) using the ADP-Glo Kinase Assay Kit (Promega, cat #V9102). Test compounds were solubilized in dimethyl sulfoxide (DMSO) and dispensed into 384-well white polystyrene nonbinding plates (Greiner, cat #781094) using the Echo acoustic dispenser (Labcyte Inc.) in a 11-point 3-fold titration in duplicates. 5 μL of 5.0 nM Aurora A in assay buffer (50 mM HEPES, pH 7.5, 0.01% Brij-35, 0.01% BSA, 10 mM MgCl2, 1 mM EGTA, 1 mM DTT) was added to the plates. Test compounds and Aurora A were incubated for 15 minutes at room temperature (RT). Then 5 μL of a 40 μM adenosine triphosphate (ATP) (Promega, cat #V915B) and 9.3 μM Myelin Basic Protein (MBP) (SignalChem, cat #M42-51N) substrate solution in assay buffer was added and the reaction mixture was incubated for 2 hours at RT. The final concentration of Aurora A, ATP and MBP in the reactions were 2.5 nM, 20 μM and 4.7 μM, respectively. Reactions were stopped and the remaining ATP depleted by adding 10 μL of ADP-Glo reagent (Promega, cat #V912B) and incubating for 40 minutes at RT. The simultaneous conversion of the remaining ADP to ATP and measurement of the newly synthesized ATP was achieved by addition of 20 μL Kinase Detection reagent (Promega, cat #V914B), incubation for 30 min at RT, and luminescence detection using the EnVision plate reader (PerkinElmer). Reactions lacking Aurora A were used as 100% inhibition controls. Reactions containing DMSO alone were used as 0% inhibition controls. The IC50 values reported in Table 2 were determined using four parameter non-linear regression curve fit.

Test [2] concerns the target T3, human recombinant Aurora B (Homo sapiens, UniProt Q96GD4).
T3 construct: purchased ThermoFisher PR9210B
In words: Aurora B Kinase Biochemical Assay (ADP-Glo). The conditions noted are these: selectivity ratio; Aurora B 10 nM, 114 μM ATP. As for the experimental part: Activity of human recombinant Aurora B (ThermoFisher, cat #PR9210B) was measured by quantification of adenosine diphosphate (ADP) using the ADP-Glo Kinase Assay Kit (Promega, cat #V9102). Test compounds were solubilized in dimethyl sulfoxide (DMSO) and dispensed into 384-well white polystyrene nonbinding plates (Greiner, cat #781094) using the Echo acoustic dispenser (Labcyte Inc.) in a 11-point 3-fold titration in duplicates. 5 μL of 20 nM Aurora B in assay buffer (50 mM HEPES, pH 7.5, 0.01% Brij-35, 0.01% BSA, 10 mM MgCl2, 1 mM EGTA, 1 mM DTT) was added to the plates. Test compounds and Aurora B were incubated for 15 minutes at room temperature (RT). Then 5 μL of a 228 μM adenosine triphosphate (ATP) (Promega, cat #V915B) and 9.3 μM Myelin Basic Protein (MBP) (SignalChem, cat #M42-51N) substrate solution in assay buffer was added and the reaction mixture was incubated for 2 hours at RT. The final concentration of Aurora b, ATP and MBP in the reactions were 10 nM, 114 μM and 4.7 μM, respectively. Reactions were stopped and the remaining ATP depleted by adding 10 μL of ADP-Glo reagent (Promega, cat #V912B) and incubating for 40 minutes at RT. The simultaneous conversion of the remaining ADP to ATP and measurement of the newly synthesized ATP was achieved by addition of 20 μL Kinase Detection reagent (Promega, cat #V9141B), incubation for 30 min at RT, and luminescence detection using the EnVision plate reader (PerkinElmer). Reactions lacking Aurora B were used as […]. Reactions containing DMSO alone were used as […]. The IC50 values reported in Table 2 were determined using four parameter non-linear regression curve fit.

The subject of the next test is CHP134. The test is described as follows: CHP134 CellTiter-Glo (CTG) Assay. It is filed as cell-based. The conditions noted are these: Homo sapiens, CHP-134, 120 h; viable cells by CellTiter-Glo after 5 days. On the procedure:
[…] cells (DSMZ-German Collection of Microorganisms and Cell Cultures, Braunschweig Germany) were cultured in RPMI 1640 supplemented with 10% fetal bovine serum, penicillin (100 U/ml), 1% L-Glutamine and streptomycin ([…]). Cells were seeded (200 cells/well) in 384-well plates for 16 hours. On day two, nine serial 1:3 compound dilutions were made in DMSO in a 96-well plate. The compounds were then further diluted into growth media using a BRAVO robot (Agilent, Santa Clara, CA). The diluted compounds were then added to quadruplicate wells in the 384-well cell plate and incubated at 37° C. and 5% CO2. After 5 days, relative numbers of viable cells were measured by luminescence using CellTiter-Glo® (Promega) according to the manufacturer's instructions and read on a SPARK Multimode Microplate Reader (Tecan, Mannedorf Switzerland). The IC50 calculations for the values reported in Table 2 were carried out using Prism 6.0 software (GraphPad, San Diego).
(ATP-based viability assays read luminescence as a measure of living cells.)

T3 sequence (Q96GD4 whole entry): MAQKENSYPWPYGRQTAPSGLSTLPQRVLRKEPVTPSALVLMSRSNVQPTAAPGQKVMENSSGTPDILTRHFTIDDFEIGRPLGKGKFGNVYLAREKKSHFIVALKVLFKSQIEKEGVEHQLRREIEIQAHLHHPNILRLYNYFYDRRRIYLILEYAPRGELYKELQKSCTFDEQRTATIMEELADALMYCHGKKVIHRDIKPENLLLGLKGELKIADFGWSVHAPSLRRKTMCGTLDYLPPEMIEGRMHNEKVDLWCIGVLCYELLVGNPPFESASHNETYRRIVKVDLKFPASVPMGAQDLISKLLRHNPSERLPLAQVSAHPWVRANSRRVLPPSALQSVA

By IC50 is commonly meant the concentration at which inhibition is half-maximal. Regarding `COc1ccc2c(c1)[C@]1(C[C@H]1c1ccc3c(Nc4cc(-c5cn(C)nc5OC)ccc4OC)n[nH]c3c1)C(=O)N2` [Example 36, (1R,2S)-5′-methoxy-2-{3-[2-methoxy-5-(3-methoxy-1-methyl-1H-pyrazol-4-yl)anilino]-1H-indazol-6-yl}spiro[cyclopropane-1,3′-indol]-2′(1′H)-one], the concentration for half-maximal inhibition (IC50) at human recombinant PLK4 turned out to be 2.29 nM. Further, the “[Aurora A IC50 (nM)]/[PLK4 IC50 (nM)]” value in test [1] was determined as 4350.9615. The “[Aurora B IC50 (nM)]/[PLK4 IC50 (nM)]” value in test [2] was found to be 12202.7972.

Take `COc1ccc2c(c1)[C@]1(C[C@H]1c1ccc3c(Nc4nc(-c5cncnc5)ncc4OC)n[nH]c3c1)C(=O)N2` [Example 25, (1R,2S)-5′-methoxy-2-{3-[(5-methoxy[2,5′-bipyrimidin]-4-yl)amino]-1H-indazol-6-yl}spiro[cyclopropane-1,3′-indol]-2′(1′H)-one]: the IC50 on human recombinant PLK4 came to 2.41 nM. Also, the “[Aurora A IC50 (nM)]/[PLK4 IC50 (nM)]” value in test [1] stood at 934.8277. In addition, in test [2], the “[Aurora B IC50 (nM)]/[PLK4 IC50 (nM)]” value is 608.5512.

As for `COc1ccc2c(c1)[C@]1(C[C@H]1c1ccc3c(Nc4ccc(C5(N(C)C)COC5)cc4OC)n[nH]c3c1)C(=O)N2` [Example 9, (1R,2S)-2-(3-{4-[3-(dimethylamino)oxetan-3-yl]-2-methoxyanilino}-1H-indazol-6-yl)-5′-methoxyspiro[cyclopropane-1,3′-indol]-2′(1′H)-one], the IC50 on human recombinant PLK4 is 0.862 nM; with CHP134, 166 nM.
